Source: patent publication US20060069132A1, “Azolecarboxamide herbicides” (priority 2004, published 2006)

Key:
bermudagrass = experiment: Test C pre-/postemergence herbicide test; format: in vivo, Cynodon dactylon; conditions: for Bermudagrass plant response rating: 500 g ai/ha
Method in brief: (§1)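 Seeds were planted and sprayed preemergence with test chemicals in a non-phytotoxic solvent mixture containing surfactant; postemergence treatments went onto plants 2 to 18 cm tall (1- to 4-leaf stage). After 12 to 14 days in a greenhouse, injury was rated visually against untreated controls on a 0–100 scale.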

giant foxtail = experiment: Test C pre-/postemergence herbicide test; format: in vivo, Setaria faberi; conditions: for Foxtail, Giant plant response rating: 500 g ai/ha
Method in brief: as §1

soybean = experiment: Test C pre-/postemergence herbicide test; format: in vivo, Glycine max; conditions: for Soybean plant response rating: 500 g ai/ha
Method in brief: as §1

[1] = tested on: smallflower umbrella sedge; experiment: Test C flooded paddy test; format: in vivo, Cyperus difformis; conditions: for Plant response rating, Sedge, Umbrella: 500 g ai/ha, visual rating after 12 to 14 days
morningglory [2] = experiment: Test A pre-/postemergence herbicide test; format: in vivo, Ipomoea spp.
Method in brief: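 Seeds sown in sandy loam received a preemergence directed soil spray of compound in non-phytotoxic solvent with surfactant; postemergence plants (2–10 cm, one- to two-leaf stage) were sprayed to runoff at the same time. After ~10 days in greenhouse, injury was rated visually versus untreated controls (0 = no effect, 100 = complete control).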

[3] = tested on: common (oilseed) sunflower; experiment: Test C pre-/postemergence herbicide test; format: in vivo, Helianthus annuus; conditions: for Plant response rating (0 = no effect, 100 = complete control), Sunflower: 62 g ai/ha; for Plant response rating (0 = no effect, 100 = complete control), Sunflower / Plant response rating, Sunflower: preemergence; for Plant response rating, Sunflower: 125 g ai/ha, scale 0 (no effect) to 100 (complete control), visual, 12 to 14 days; for Sunflower plant response rating: Preemergence, 500 g ai/ha, scale 0 to 100, 0 no effect, 100 complete control
Method in brief: as §1

goosegrass = experiment: Test C pre-/postemergence herbicide test; format: in vivo, Eleusine indica; conditions: for Goosegrass plant response rating: 500 g ai/ha
Method in brief: as §1

morningglory [4] = experiment: Test C pre-/postemergence herbicide test; format: in vivo, Ipomoea coccinea; set-up: key to Plant response rating, Morningglory: 0 = no effect, 100 = complete control; conditions: for Morningglory plant response rating: Preemergence, 500 g ai/ha, scale 0 to 100, 0 no effect, 100 complete control
Method in brief: as §1

kochia = experiment: Test C pre-/postemergence herbicide test; format: in vivo, Kochia scoparia; conditions: for Kochia plant response rating: 500 g ai/ha
Method in brief: as §1

[5] = 125 g ai/ha, scale 0 (no effect) to 100 (complete control), visual, 12 to 14 days, preemergence
[6] = 250 g ai/ha, scale 0 to 100 (0 no effect, 100 complete control), visual, 12 to 14 days, preemergence
[7] = Postemergence, 250 g ai/ha, scale 0 to 100, 0 no effect, 100 complete control
[8] = Preemergence, scale 0 to 100, 0 no effect, 100 complete control
[9] = postemergence, 125 g ai/ha, scale 0 to 100
[10] = postemergence, 62 g ai/ha, scale 0 to 100
[11] = 62 g ai/ha, scale 0 to 100 (0 no effect, 100 complete control)
[12] = 125 g ai/ha, scale of 0 to 100, 0 is no effect, 100 is complete control
[13] = 250 g ai/ha, scale of 0 to 100, 0 is no effect, 100 is complete control
[14] = scale 0 to 100 (0 no effect, 100 complete control)
[15] = Postemergence, 500 g ai/ha, 0 to 100 scale, 0 no effect, 100 complete control
[16] = Postemergence, 2000 g ai/ha, 0 to 100 scale, 0 no effect, 100 complete control
[17] = Preemergence, 500 g ai/ha, visual rating, 0 to 100 scale (0 no effect, 100 complete control)
[18] = Preemergence, 2000 g ai/ha, visual rating, 0 to 100 scale (0 no effect, 100 complete control)

CCn1nc(C(C)(C)C)cc1C(=O)Nc1cccc(C(C)=NO)c1 [Compound 108] was tested, and the “Plant response rating (0 = no effect, 100 = complete control), Bermudagrass” value (bermudagrass; 62 g ai/ha, preemergence) was 100, the “Plant response rating, Bermudagrass” value (bermudagrass; [5]) was 100 and the “Plant response rating, Bermudagrass” value (bermudagrass; [6]) was 100. The “Bermudagrass plant response rating” value (bermudagrass; Postemergence, scale 0 to 100) was 80, the “Plant response rating, Bermudagrass” value (bermudagrass; [7]) was 60 and the “Bermudagrass plant response rating” value (bermudagrass; [8]) was 100. For the same compound, the “Plant response rating, Bermudagrass” value (bermudagrass; [9]) was 30, the “Plant response rating, Bermudagrass” value (bermudagrass; [10]) was 30 and the “Plant response rating (0 = no effect, 100 = complete control), Foxtail, Giant” value (giant foxtail; 62 g ai/ha, preemergence) was 100. For the same compound, the “Plant response rating, Foxtail, Giant” value (giant foxtail; [5]) was 100, the “Plant response rating, Foxtail, Giant” value (giant foxtail; [6]) was 100 and the “Foxtail, Giant plant response rating” value (giant foxtail; Postemergence, scale 0 to 100) was 70. The “Foxtail, Giant plant response rating” value (giant foxtail; [8]) was 100, the “Plant response rating, Foxtail, Giant” value (giant foxtail; [9]) was 50 and the “Plant response rating, Foxtail, Giant” value (giant foxtail; [10]) was 30. For the same compound, the “Plant response rating, Soybean” value (soybean; [5]) was 0, the “Soybean plant response rating” value (soybean; Postemergence, scale 0 to 100) was 60 and the “Plant response rating, Soybean” value (soybean; [7]) was 60. The “Soybean plant response rating” value (soybean; [8]) was 10, the “Plant response rating, Soybean” value (soybean; [9]) was 60 and the “Plant response rating, Soybean” value (soybean; [10]) was 50. For the same compound, the “Sedge, Umbrella plant response rating” value [1, 11] was 60, the “Sedge, Umbrella plant response rating” value [1, 12] was 80 and the “Sedge, Umbrella plant response rating” value [1, 13] was 80. For the same compound, the “Plant response rating, Sedge, Umbrella” value [1, 14] was 80, the “Morningglory plant response rating” value (morningglory [2]; [15]) was 40 and the “Plant response rating, Morningglory” value (morningglory [2]; [16]) was 40. The “Morningglory plant response rating” value (morningglory [2]; [17]) was 30, the “Morningglory plant response rating” value (morningglory [2]; [18]) was 75 and the “Plant response rating (0 = no effect, 100 = complete control), Sunflower” value [3] was 20. For the same compound, the “Plant response rating, Sunflower” value [3] was 20, the “Sunflower plant response rating” value [3] was 20 and the “Plant response rating (0 = no effect, 100 = complete control), Goosegrass” value (goosegrass; 62 g ai/ha, preemergence) was 90. For the same compound, the “Plant response rating, Goosegrass” value (goosegrass; [5]) was 100, the “Goosegrass plant response rating” value (goosegrass; Postemergence, scale 0 to 100) was 70 and the “Plant response rating, Goosegrass” value (goosegrass; [7]) was 70. For the same compound, the “Goosegrass plant response rating” value (goosegrass; [8]) was 100, the “Plant response rating, Goosegrass” value (goosegrass; [9]) was 40 and the “Plant response rating, Goosegrass” value (goosegrass; [10]) was 20. The “Plant response rating (0 = no effect, 100 = complete control), Morningglory” value (morningglory [4]; 62 g ai/ha, preemergence) was 40, the “Morningglory plant response rating” value (morningglory [4]) was 90 and the “Plant response rating, Morningglory” value (morningglory [4]; [9]) was 60. For the same compound, the “Plant response rating, Morningglory” value (morningglory [4]; [10]) was 30, the “Plant response rating (0 = no effect, 100 = complete control), Kochia” value (kochia; 62 g ai/ha, preemergence) was 100 and the “Plant response rating, Kochia” value (kochia; [5]) was 100. For the same compound, the “Kochia plant response rating” value (kochia; Postemergence, scale 0 to 100) was 90, the “Plant response rating, Kochia” value (kochia; [7]) was 90 and the “Kochia plant response rating” value (kochia; [8]) was 100. The “Plant response rating, Kochia” value (kochia; [9]) was 80 and the “Plant response rating, Kochia” value (kochia; [10]) was 60.
For CC(=NO)c1cccc(NC(=O)c2cc(C(C)(C)C)nn2C)c1 [Compound 102], the “Plant response rating (0 = no effect, 100 = complete control), Bermudagrass” value (bermudagrass; 62 g ai/ha, preemergence) was 100, the “Plant response rating, Bermudagrass” value (bermudagrass; [5]) was 100 and the “Plant response rating, Bermudagrass” value (bermudagrass; [6]) was 100. For the same compound, the “Bermudagrass plant response rating” value (bermudagrass; [8]) was 100, the “Plant response rating (0 = no effect, 100 = complete control), Foxtail, Giant” value (giant foxtail; 62 g ai/ha, preemergence) was 10 and the “Plant response rating, Foxtail, Giant” value (giant foxtail; [5]) was 50. For the same compound, the “Plant response rating, Foxtail, Giant” value (giant foxtail; [6]) was 80, the “Foxtail, Giant plant response rating” value (giant foxtail; [8]) was 80 and the “Plant response rating (0 = no effect, 100 = complete control), Soybean” value (soybean; 62 g ai/ha, preemergence) was 0. For the same compound, the “Plant response rating, Soybean” value (soybean; [5]) was 0, the “Soybean plant response rating” value (soybean; [8]) was 20 and the “Sedge, Umbrella plant response rating” value [1, 11] was 50. For the same compound, the “Sedge, Umbrella plant response rating” value [1, 12] was 70, the “Sedge, Umbrella plant response rating” value [1, 13] was 70 and the “Plant response rating, Sedge, Umbrella” value [1, 14] was 80. The “Morningglory plant response rating” value (morningglory [2]; [15]) was 35, the “Plant response rating, Morningglory” value (morningglory [2]; [16]) was 55 and the “Morningglory plant response rating” value (morningglory [2]; [17]) was 65. The “Morningglory plant response rating” value (morningglory [2]; [18]) was 90, the “Plant response rating (0 = no effect, 100 = complete control), Sunflower” value [3] was 0 and the “Plant response rating, Sunflower” value [3] was 20. The “Sunflower plant response rating” value [3] was 20, the “Plant response rating (0 = no effect, 100 = complete control), Goosegrass” value (goosegrass; 62 g ai/ha, preemergence) was 90 and the “Plant response rating, Goosegrass” value (goosegrass; [5]) was 100. The “Goosegrass plant response rating” value (goosegrass; [8]) was 100, the “Plant response rating (0 = no effect, 100 = complete control), Morningglory” value (morningglory [4]; 62 g ai/ha, preemergence) was 30 and the “Plant response rating, Morningglory” value (morningglory [4]; [5]) was 70. The “Morningglory plant response rating” value (morningglory [4]) was 80, the “Plant response rating (0 = no effect, 100 = complete control), Kochia” value (kochia; 62 g ai/ha, preemergence) was 0 and the “Plant response rating, Kochia” value (kochia; [5]) was 30. For the same compound, the “Kochia plant response rating” value (kochia; [8]) was 60.
